Counter-ions that a name gives are not always drawn. Like-named read-outs stand apart in the source and are kept apart here.
Columns and labels:
[1] = Acute toxicity LD50 in the mouse (method of Weil); conditions: in vivo
From the text: (§1) The novel compounds of the present invention are characterized by high antianaphylactic and antibronchospastic activity and by a low toxicity. The LD50 of the novel piperazine derivatives has been determined in the mouse, both ip and per os, following the method described by C. S. Weil, Biometrics, 8, 249 (1952). In order to evaluate the antianaphylactic activity of said novel compounds, the method of Goose and Blair was followed, in which passive cutaneous anaphylaxis (PCA) was induced in the rat with homologous antibodies [Immunology, 16, 749, (1969)].
(§2) In the Table which follows, the results obtained utilizing the above tests are reported. The LD50 and the DE50 in the PCA test are expressed in […]. The DE50 for the antibronchospastic activity (BSP) is expressed in μm/kg i.v. (bronchospasm induced by histamine (H) and acetylcholine (A)). In the TXA2 test, (C) is the concentration in μg/ml, whereas (I%) denotes the maximal inhibition percentage. In the PLA test, the DE50 is expressed in μM/kg i.v. (evaluated 5 and 10 minutes after administration).

[2] = tested on: bronchospasm induced by histamine; assay: Inhibition of bronchospasm (BSP) induced by histamine in anaesthetized guinea pig (Konzett and Roessler); format: in vivo; conditions: Cavia porcellus, iv, 1 min, histamine 0.5-25 μg/kg i.v., one minute after injection of drug, read-out: BSP, ED50 H
Protocol: (§3) The antibronchospastic activity was determined according to the method of Konzett and Roessler, Arch., Exp. Path. Pharmakol., 195, 71 (1940), entailing the inhibition of bronchospasm induced in anaesthesized guinea pig by histamine and acetylcholine. For this purpose, the bronchospasms were induced by administering intravenously to the animals 0.5-25 μg/kg of hystamine or 2.5-10 μg/kg of acetylcholine. Inhibition (ED50) was determined one minute after injection of the drug under test.
as §2

[3] = tested on: passive cutaneous anaphylaxis (PCA); assay: Passive cutaneous anaphylaxis (PCA) in the rat with homologous antibodies (method of Goose and Blair); format: in vivo; conditions: 0.5 h, inhibition of spots areas, 30 minutes after challenge
From the text: as §1
Female albino rate were immunized intramuscularly with egg albumin and intraperitoneally with Haemophylus pertussis vaccine. Twelve days after treatment, the animals were bled and sera thus obtained were injected intradermally into another group of rats. Twenty-four hours later, the animals were challenged with an i.v. solution of ovoalbumin and Evans blue dye, and sacrificed after 30 minutes. The test drugs were given by different routes of administration and at different times before the challenge. Inhibition of spots areas (ED50) was determined.
as §2

[4] = tested on: passive lung anaphylaxis (PLA); assay: Passive lung anaphylaxis (PLA): antigen induced bronchoconstriction in passively sensitized rat (method of Greenberg et al); format: in vivo; conditions: iv, i.v.
Protocol: Inhibition of passive lung anaphylaxis (PLA) was studied in a model of antigen induced bronchoconstriction in sensitized rat, according to the method described by Greenberg et al, Can. J. Physiol. Pharmacol., 57, 48 (1979). Female albino rate were passively sensitized by intravenous injection of homologous anti-egg albumin serum. Twenty-four hours later the rats were anaesthetized with pentobarbital (35 mg/kg i.p.) and spontaneous respiration was arrested by administration of tubocurarine (0.75 mg/kg i.v.).
Bronchocostriction was induced by egg albumin intravenously administered and measured by the Konzett and Roessler method Arch. Exp. Path. Pharmakol., 195, 71, (1940). The compounds were injected intravenously one minute before antigen challenge. The inhibitory effect (ED50) was evaluated 5 and 10 minutes after i.v. administration of the drugs under test.
as §2

[5] = tested on: bronchospasm induced by acetylcholine; assay: Inhibition of bronchospasm (BSP) induced by acetylcholine in anaesthetized guinea pig (Konzett and Roessler); format: in vivo; conditions: Cavia porcellus, iv, 1 min, acetylcholine 2.5-10 μg/kg i.v., one minute after injection of drug
Protocol: as §3, §2

TXA2 = TXA2 inhibition in perfused guinea-pig lungs challenged with bradykinin (method of Berti et al); conditions: C = 10 μg/ml, bradykinin 0.25-0.5 μg
Protocol: The TXA2 inhibition was evaluated according to the method of Berti et al Brit. J. Pharmacol., 68, 467 (1980). Lungs from female or male guinea-pigs were perfused through the pulmonary artery with Krebs bicarbonate (5 ml/min, 37° C.). The pulmonary outflow superfused strips of rabbit mesenteric artery and rabbit aorta in cascade, in order to monitor TXA2 activity. These tissues were superfused with a mixture of receptor antagonist and indomethacin to […] their selectivity and sensitivity. Lungs were challenged with a single injection of bradykinin (0.25-0.5 μg) which is known to increase generation of TXA2 from the pulmonary tissue. The novel compounds of the invention were perfused at different concentrations through the lungs 30 and 60 minutes before agonists.
as §2

[6] = 5 min, evaluated 5 minutes after administration, read-out: PLA, ED50 5'
[7] = 10 min, evaluated 10 minutes after administration, read-out: PLA, ED50 10'

CNc1cccc(NC(=O)CCN2CCN(C(c3ccccc3)c3ccccc3)CC2)c1 [Compound 1, 3-(4-benzhydryl-1-piperazinyl)-N,3-methylaminophenylpropionamide]
LD50 ([1]; ip, read-out: LD50 ip): 240 µmol/kg | LD50 ([1]; po, per os, read-out: LD50 os): 580 µmol/kg | ED50 [2]: 0.25 µmol/kg | ED50 [3]: 13 µmol/kg

CN(C)c1cccc(NC(=O)CCN2CCN(C(c3ccccc3)c3ccccc3)CC2)c1 [Compound 2, 3-(4-benzhydryl-1-piperazinyl)-N,3-dimethylaminoophenylpropionamide trihydrochloride hemihydrate]
LD50 ([1]; ip, read-out: LD50 ip): 260 µmol/kg | LD50 ([1]; po, per os, read-out: LD50 os): 340 µmol/kg | ED50 [3]: > 69 µmol/kg

CN(C)c1ccc(NC(=O)CCN2CCN(C(c3ccccc3)c3ccccc3)CC2)cc1 [Compound 3, 3-(4-benzhydryl-1-piperazinyl)-N,4-dimethylaminophenylpropionamide]
ED50 [4, 6]: 0.02 µmol/kg | ED50 [4, 7]: 0.02 µmol/kg | ED50 [5]: 0.8 µmol/kg | LD50 ([1]; po, per os, read-out: LD50 os): > 7000 µmol/kg | ED50 [2]: 1.1 µmol/kg | ED50 [3]: 25 µmol/kg

Nc1cccc(NC(=O)CCN2CCN(C(c3ccccc3)c3ccccc3)CC2)c1 [Compound 4, 3-(4-benzhydryl-1-piperazinyl)-N,3-aminophenylpropionamide]
ED50 [4, 6]: 0.04 µmol/kg | ED50 [4, 7]: 0.08 µmol/kg | ED50 [5]: 0.4 µmol/kg | TXA2 I % (maximal inhibition percentage) (TXA2): 47% | LD50 ([1]; po, per os, read-out: LD50 os): 5000 µmol/kg | ED50 [2]: 0.21 µmol/kg | ED50 [3]: 8 µmol/kg

Nc1ccc(NC(=O)CCN2CCN(C(c3ccccc3)c3ccccc3)CC2)cc1 [Compound 5, 3-(4-benzhydryl-1-piperazinyl)-N,4-aminophenylpropionamide]
LD50 ([1]; po, per os, read-out: LD50 os): 7200 µmol/kg | ED50 [2]: 0.23 µmol/kg | ED50 [3]: 28 µmol/kg

CN(C(=O)CCN1CCN(C(c2ccccc2)c2ccccc2)CC1)c1cccc(N)c1 [Compound 6, 3-(4-benzhydryl-1-piperazinyl)-N,3-aminophenvl-N-methylpropionamide]
ED50 [4, 6]: 0.65 µmol/kg | ED50 [4, 7]: 0.69 µmol/kg | ED50 [5]: 0.4 µmol/kg | TXA2 I % (maximal inhibition percentage) (TXA2): 0.8% | LD50 ([1]; ip, read-out: LD50 ip): > 2330 µmol/kg | LD50 ([1]; po, per os, read-out: LD50 os): > 7000 µmol/kg | ED50 [2]: 0.12 µmol/kg | ED50 [3]: 10 µmol/kg

CNC(=O)Nc1ccc(NC(=O)CCN2CCN(C(c3ccccc3)c3ccccc3)CC2)cc1 [Compound 7, 3-(4-benzhydryl-1-piperazinyl)-N,4-methylureidophenylpropionamide]
LD50 ([1]; ip, read-out: LD50 ip): 1750 µmol/kg | LD50 ([1]; po, per os, read-out: LD50 os): > 5900 µmol/kg | ED50 [3]: 73 µmol/kg

CN(C)c1ccc(NC(=O)CCCN2CCN(C(c3ccccc3)c3ccccc3)CC2)cc1 [Compound 8]
ED50 [4, 6]: 0.84 µmol/kg | ED50 [4, 7]: 0.84 µmol/kg | ED50 [5]: > 3 µmol/kg | LD50 ([1]; ip, read-out: LD50 ip): 230 µmol/kg | LD50 ([1]; po, per os, read-out: LD50 os): 430 µmol/kg | ED50 [2]: 1.1 µmol/kg | ED50 [3]: 10 µmol/kg

Source: patent US4675319A, “Antianaphylactic and antibronchospastic piperazinyl-(N-substituted phenyl)carboxamides, compositions and use” (Recordati S. A. Chemical and Pharmaceutical Company, priority 1985, dated 1987)
